Key:
male CD1 mice = assay: Pentylenetetrazol (PTZ) infusion seizure threshold; type: in vivo, mouse; conditions: 10 mg/kg
Text: Administration of chemical convulsant agents such as Pentylenetetrazol (PTZ) are used to mimic behavioral aspects of human epilepsy. PTZ causes myoclonic jerking movements, clonic convulsions or forelimb/hindlimb tonic extension in rodents. The PTZ model is primarily used to evaluate anti-convulsant properties of antiepileptic drugs (AED's) by identifying compounds which raise seizure threshold but can also be used to identify pro-convulsant agents that lower seizure threshold. PTZ is a well-established model for acute and repetitive seizures, and is accepted for use for screening AED action. PTZ induces myoclonic and generalized tonic-clonic seizures.
Male CD1 mice (age 6-8 weeks, weight 30.0-42.9 g, source: Charles River UK) were used in this study. […] During this time-infusion, mice were individually assessed for the onset of myoclonic, forelimb tonus and hindlimb tonus seizures. The latencies (in seconds) from start of infusion to the appearance of first myoclonus, forelimb tonic and hind limb tonic extension were recorded. […] For animals reaching this cut off, the dose of PTZ in mg/kg infused over the 120 s was calculated as the threshold dose. […]
Data was analysed using one way ANOVA in which the dose of PTZ required to induce seizure was compared between each treatment groups and vehicle. […]

patients = conditions: human, in vivo; cited from earlier work
[1] = system: children aged 7 to 14 years old with ADHD; conditions: 6-week trial, children aged 7 to 14 years with ADHD; cited from earlier work

In the case of `CN1C(=O)CN=C(c2ccccc2)c2cc(Cl)ccc21` [Diazepam, diazepam], the “Dose of PTZ required to induce myoclonic, forelimb and hindlimb tonic seizures” value (male CD1 mice) is reported as “significantly increased”.

In the case of `CNCC[C@@H](Oc1ccccc1C)c1ccccc1` [Atomoxetine, atomoxetine], the “Decreased appetite, % of patients” value (patients) is listed as 15-20%.

For `NC(=O)C[S+]([O-])C(c1ccccc1)c1ccccc1` (stereo not drawn) [modafinil], the “Response rate compared to placebo” value [1] is given as 78%.

Source: patent publication US12377112B2, “Methods of treating neurocognitive disorders, chronic pain and reducing inflammation” (priority 2019, dated 2025)
